In patent publication US8318504B2, “MRP2 efflux pathway prognostic method” (priority 2009, dated 2012):

Legend:
ABCG2 = target: T1, ABCG2 (Homo sapiens, UniProt Q9UNQ0); assay: ATP-dependent transport of CLF into Sf21 membrane vesicles containing ABCG2; assay type: biochemical; conditions: compared with control vesicles
T1 construct: made in house; host or cells: Sf21 insect cells, baculovirus (gift from Borst); plasma membrane vesicles
T1 sequence (Q9UNQ0 1-655): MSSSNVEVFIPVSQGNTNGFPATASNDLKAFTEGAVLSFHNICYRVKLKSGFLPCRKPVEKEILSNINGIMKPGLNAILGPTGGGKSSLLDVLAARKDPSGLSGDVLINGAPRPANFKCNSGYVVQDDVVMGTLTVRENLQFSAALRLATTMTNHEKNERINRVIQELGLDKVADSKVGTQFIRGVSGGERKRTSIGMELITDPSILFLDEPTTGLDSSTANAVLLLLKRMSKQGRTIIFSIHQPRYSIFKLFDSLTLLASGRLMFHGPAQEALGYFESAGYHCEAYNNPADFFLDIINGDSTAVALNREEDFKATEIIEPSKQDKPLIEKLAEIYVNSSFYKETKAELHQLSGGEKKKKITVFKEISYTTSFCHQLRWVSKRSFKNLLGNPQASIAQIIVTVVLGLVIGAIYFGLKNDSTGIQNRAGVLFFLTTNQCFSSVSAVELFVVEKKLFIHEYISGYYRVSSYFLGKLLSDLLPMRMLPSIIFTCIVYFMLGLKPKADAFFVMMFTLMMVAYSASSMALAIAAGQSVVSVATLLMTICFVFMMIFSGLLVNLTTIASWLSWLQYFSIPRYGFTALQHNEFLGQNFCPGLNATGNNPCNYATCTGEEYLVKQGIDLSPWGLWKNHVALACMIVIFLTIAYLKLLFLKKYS
Procedure: The production of recombinant baculovirus was as described by de Waart et al. [Liver Int 2006 April; 26(3):362-368]. ABCC3 and ABCG2-recombinant baculovirus were a kind gift from Borst [Breedveld P. et al., Cancer Res 2004 Aug. 15; 64(16):5804-5811 and Borst P. et al., J Biol Chem 2001 Dec. 7; 276(49):46400-46407.]. ABCB11-recombinant baculovirus was a kind gift from Thompson [Thompson R J et al., Gastroenterology 2002 November; 123(5):1649-1658]. Sf21 cells grown at 27° C. were infected with ABCB11, ABCC2, ABCC3 and ABCG2-cDNA containing baculovirus. Cells were harvested at 2-4 days after infection. Membrane vesicle preparation was as described by de Waart et al. [Liver Int 2006 April; 26(3):362-368].
Transport studies with membrane vesicles were performed using the rapid filtration technique as described by Heijn M et al. [Am J Physiol 1992 January; 262(1 Pt 1):C104-C110]. Radiolabel was measured with a scintillation counter. When CLF was used as a probe, filters were placed in a glass tube, 0.1% Triton-X-100 was added and the tubes vortexed. Samples were pipetted in 96-well plates (Kartell, Noviglio, Italy) and the amount CLF quantitated by measurement of fluorescence at λexe 485 nm and λcm 520 nm using a NovoStar (BMG-labtech, Offenburg, Germany).

NTCP = target: T2, NTCP (Homo sapiens, UniProt Q14973); assay: Inhibition by CLF of TC transport in CHO cells expressing NTCP; assay type: cell-based; conditions: 0, 5 or 50 μmol/L CLF, 2.5 μmol/L TC
T2 construct: the coding region ligated into pcDNA5/FRT; expressed in transfected cells
T2 sequence (Q14973 1-349): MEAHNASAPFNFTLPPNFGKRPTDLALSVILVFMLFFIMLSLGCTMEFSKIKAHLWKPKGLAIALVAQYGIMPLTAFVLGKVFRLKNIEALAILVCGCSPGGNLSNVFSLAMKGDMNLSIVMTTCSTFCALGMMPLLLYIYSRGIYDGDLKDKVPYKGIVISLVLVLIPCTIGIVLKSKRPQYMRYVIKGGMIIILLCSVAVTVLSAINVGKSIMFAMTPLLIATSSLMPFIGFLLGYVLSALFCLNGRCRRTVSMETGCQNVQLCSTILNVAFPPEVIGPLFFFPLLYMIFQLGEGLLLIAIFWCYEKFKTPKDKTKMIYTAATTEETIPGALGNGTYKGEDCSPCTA
Procedure: FIGS. 3A-3D relate to inhibition of transport activity of hepatocellular uptake transporters by CLF. CHO cells expressing NTCP, OATP1B1, OATP1B3 and OATP2B1 were incubated with 0, 5 or 50 μmol/L CLF and with the substrates, 2.5 μmol/L TC, 1 μmol/L estrone-3-sulfate, 10 μmol/L TC and 1 μmol/L estrone-3-sulfate, respectively. Data represent means±SD of triplicate determinations.
For all transport experiments, cells grown on 3 cm culture dishes were cultured for 24 hours in media supplemented with 5 mmol/L sodium-butyrate to increase expression levels of transfected transporters [Palermo D P et al., J Biotechnol 1991 June; 19(1):35-47]. • Transport experiments with uptake of radioactively labeled substrates: These experiments were performed as described by Huber R D et al. [Am J Physiol Cell Physiol 2007 February; 292(2):C795-C806]. • Transport experiments with uptake of CLF: Uptake was performed in the same buffers as for the radioactive substrates above. […] After complete solubilization, 1.5 ml was used to measure fluorescence in a Perkin-Elmer LS-5 luminescence-spectrometer set at λexe 486 nm (slit 10 nm) and λem 520 nm (slit 5 nm). Protein was determined with the bicinchoninic acid method using a kit from Interchim (Montfuçon, France). […]

`CC(CCC(=O)NC(CCCCNC(=S)Nc1ccc(-c2c3ccc(=O)cc-3oc3cc(O)ccc23)c(C(=O)O)c1)C(=O)O)C1CCC2C3C(O)CC4CC(O)CCC4(C)C3CC(O)C12C` (centres unmarked) [CLF, cholyl lysyl fluorescein] was tested, and the “ATP-dependent transport of CLF in ABCG2 containing membrane vesicles” value (ABCG2) was “not higher than in control vesicles” and the “inhibition of transport of TC via NTCP by CLF” value (NTCP) was “very efficiently inhibited”.
